Measurements as given in paper PMC8795149, “Characterization of a novel non-steroidal glucocorticoid receptor agonist optimized for topical treatment” (Scientific Reports, 2022).

Experiments:
[1] = TPA mouse model, blood concentration after topical dose; type: in vivo; settings: blood concentrations at 2 h after the last topical dose
Experimental: Treatments were performed by topical application of either vehicle (90% acetone, 10% transcutol), Treatments were applied twice daily on days 8, 9, 10, and once on day 11 (20–10 μL to each side of ear) with at least 5 h between the first and second treatment. TPA challenge on days 8 and 10 was performed at least 1 h after the first treatment. On day 11, animals were sacrificed 2 h after the last dosing. Blood was sampled by cardiac puncture from animals anaesthetized with isoflurane. Thereafter, ear biopsies were taken with a biopsy punch (8 mm diameter), weighed and stored at – 80 °C. Plasma osteocalcin levels were analyzed by EIA (rat-MID, IDS, UK). Effective inhibitory doses (ID50) were determined from a sigmoid I(max) model in Phoenix64, Pharsight, Certara. Therapeutic Index (TI) was calculated either as ID50 for spleen weight reduction or ID50 for blood osteocalcin concentrations, divided by ID50 for ear weight reduction.

[2] = Stability in whole blood (dog); type: in vitro ADME; settings: 0.1 µM, 37 °C
Experimental: (§1) Compounds were incubated in diluted fresh rat, dog, minipig or human whole blood (heparin stabilized, 50% blood and 50% phosphate buffer with 1% bovine serum albumin) for 120 min at 0.1 µM, at 37 °C and the half-lives were determined. Samples were taken at 0, 15, 30, 60 and 120 min, and reactions were terminated by addition of acetonitrile containing analytical internal standard (IS). Test compound depletion was determined using time-of-flight mass spectrometry in positive ion mode (TOF–MS; AB Sciex API5600). Elimination rate constants (k) were calculated from peak areas and the half-lives was determined (t½ = ln2/k).

[3] = Stability in whole blood (rat); type: in vitro ADME; settings: 0.1 µM, 37 °C
Experimental: as §1

[4] = test system: 8 ion channels, 40 kinases, 2 phosphatases, up to 163 G-protein coupled receptors; experiment: Off-target panels (Eurofins IonChannelProfiler, KinaseProfiler, GPCRProfiler); settings: 10 µM
[5] = In vivo pharmacokinetics in dog, i.v.
Experimental: The pharmacokinetic profile of LEO 134310 was determined in rat (male Sprague Dawley) and dog (female Beagle) after intravenous (i.v.) injection at 1 mg/kg. LEO 134310 was administered in isotonic cyclodextrin solution at 0.5 mg/mL (0.1% Citrate buffer pH 4, 20% hydroxy-propyl-β-cyclodextrin in 0.2% NaCl). The i.v. dose was given as a bolus in rats and as a slow injection over 2 min in dogs. The dosing volume was 2 mL/kg. Blood was immediately diluted after sampling in an inhibitory cocktail containing acetylcholinesterase inhibitor Dichlorvos [1 mg/mL in an 8 mg/mL K2EDTA solution in phosphate buffer (PBS)] and samples were stored at − 80 °C until analysis. Samples were analyzed by LC–MS/MS using an API 5500/API 6500 QTRAP mass spectrometer. Pharmacokinetic parameters were derived from a non-compartment model in Phoenix64 (Pharsight, Certara).

[6] = molecular target: T1, human Mineralocorticoid Receptor (Homo sapiens, UniProt P08235); experiment: MR antagonist assay, MR reporter assay; type: cell-based
T1 construct: host or cells: HEK293 (DSMZ ACC 305)
T1 sequence (P08235 726-964 limits assumed): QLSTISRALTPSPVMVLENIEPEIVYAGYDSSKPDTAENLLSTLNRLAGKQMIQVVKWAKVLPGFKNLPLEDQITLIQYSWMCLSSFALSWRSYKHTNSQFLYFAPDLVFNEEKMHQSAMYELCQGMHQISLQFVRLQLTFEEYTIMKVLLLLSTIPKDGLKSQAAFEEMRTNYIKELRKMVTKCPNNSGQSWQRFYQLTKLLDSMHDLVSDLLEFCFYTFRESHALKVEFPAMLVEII
Experimental: Assays were performed at Indigo Biosciences according to standard protocols. In brief, MR-luciferase reporter cells were incubated with medium containing charcoal-stripped fetal bovine serum and incubated with test and reference compounds for 24 h before measuring luminescence. Data were fitted by the means of four parameter logistic regression.
LEO 134310 and LEO 134988 were tested in the human Mineralocorticoid Receptor in cellular GAL4 reporter gene assays. All assays were done in HEK293 cells (DSMZ ACC 305). The plasmids used in Phenex’ GAL4 assay system are derivatives of Stratagene’s M2H plasmids: the reporter plasmid pFR-Luc (contains a synthetic promoter with five tandem repeats of the yeast GAL4 binding sites that control expression of the Photinus pyralis (American firefly) luciferase gene), and pCMV-BD (for fusions of nuclear receptor ligand binding domains to the DNA-binding domain of the yeast protein GAL4). In order to improve experimental accuracy, a second reporter - Renilla reniformis luciferase, driven by a constitutive promoter - was included as internal control. Using the control reporter (pRL-CMV) allows correcting for variations in experimental handling e.g. transfection efficacy, cell viability, pipetting errors, cell lysis efficiency and assay efficiency. The compounds were tested in 9 concentrations in triplicates.

C[C@H](NC(=O)[C@H]1CCCO1)[C@H](Oc1ccc(C(=O)O[C@H]2CCCN(C(=O)[C@H]3COC(=O)C3)C2)cc1)c1ccc(C2CC2)cc1 [LEO 134310]
Higher dose needed to achieve systemic exposure comparable to BMV [1]: 800 fold
Higher dose needed to achieve systemic exposure comparable to CP [1]: 200 fold
In vitro (blood) half-life [2]: 3.3 ± 2.1 (n = 5) min
In vitro (blood) half-life [3]: 2.2 (2.1, 2.2) (n = 2) min
Off-target activity in ion channel, kinase, phosphatase and GPCR panels [4]: no off-target activity was identified
In vivo clearance relative to liver blood flow [5]: 15 fold
In vivo clearance ([5]; i.v. 1 mg/kg): 470 ± 97 (n = 3) mL/min/kg
In vivo terminal half-life ([5]; i.v. 1 mg/kg): 11 ± 1.2 (n = 3) min
Antagonist activity on MR [6]: no antagonist activity on MR
